Patent US8354436B2 (4SC Discovery GmbH, priority 2011, dated 2013)
pIC50: −log10 of the molar value. Like-named read-outs stand apart in the source and are kept apart here.

Experiments:
Assay type in all cases: cell-based
Conditions in all cases: 48 hours
[1] = test system: IFN-γ; experiment: IFN-γ production by PHA-stimulated human PBMC (OptEIA human IFN-g ELISA)
Procedure, shortened: (§1)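 Compounds are titrated semilogarithmically for IC50, or tested at 10, 1, 0.1 and 0.01 μM for screening, on healthy-donor PBMC activated with 2 μg/ml PHA. After 48 h, secreted cytokine is measured in supernatant.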

[2] = test system: PBMC from healthy human donors; experiment: T cell proliferation assay (PHA-stimulated human PBMC, BrdU ELISA)
Procedure, shortened: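 Healthy-donor PBMC isolated on Ficoll, seeded at 1×10⁵ cells/well in RPMI with 10% dialysed FCS, stimulated with 2 μg/ml PHA in presence of test compound. Proliferation read after 48 hours by BrdU-incorporation ELISA.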

[3] = test system: IL-17FF; experiment: IL-17FF production by PHA-stimulated human PBMC (human IL-17F ELI-Pair)
Procedure, shortened: as §1

[4] = PHA-stimulated human PBMC, column C, read-out: IC50 (IFNγ)
[5] = PHA-stimulated human PBMC, column D, read-out: IC50 (Tcell proliferation)
[6] = PHA-stimulated human PBMC, column B, read-out: IC50 (IL-17FF)
[7] = human PBMC, 2 μg/ml PHA, read-out: C: IC50 (IFNγ)
[8] = human PBMC, 2 μg/ml PHA, read-out: D: IC50 (Tcell proliferation)
[9] = human PBMC, 2 μg/ml PHA, read-out: B: IC50 (IL-17FF)

Row | SMILES | pIC50 [1, 4] | pIC50 [3, 6] | pIC50 [1, 7] | pIC50 [3, 9] | pIC50 [2, 5] | pIC50 [2, 8]
1 | Fc1cccc(Cl)c1-c1noc(-c2cnn(-c3cccc(Cl)c3)c2C(F)(F)F)c1-c1ccoc1 [Example B-7, 3-(2-chloro-6-fluorophenyl)-5-(1-(3-chlorophenyl)-5-(trifluoromethyl)-1H-pyrazol-4-yl)-4-(furan-3-yl)isoxazole] | – | – | > 8.00 | > 8.00 | – | > 8.00
2 | COC(=O)Nc1c(-c2c(F)cccc2Cl)noc1-c1cnn(-c2cccc(F)c2)c1C(F)(F)F [Example I-138, methyl 3-(2-chloro-6-fluorophenyl)-5-[1-(3-fluorophenyl)-5-(trifluoromethyl)-1H-pyrazol-4-yl]isoxazol-4-ylcarbamate] | 6.00 to 7.00 | 6.00 to 7.00 | – | – | 6.00 to 7.00 | –
3 | COc1cccc(Cl)c1-c1noc(-c2cnn(-c3cccnc3)c2C(F)(F)F)c1-c1cnco1 [Example B-31, 3-(2-chloro-6-methoxyphenyl)-4-(oxazol-5-yl)-5-(1-(pyridin-3-yl)-5-(trifluoromethyl)-1H-pyrazol-4-yl)isoxazole] | – | – | 6.00 to 7.00 | 5.00 to 6.00 | – | 5.00 to 6.00
4 | CCOC(=O)c1c(-c2ccccc2F)noc1-c1cnn(-c2cccc(F)c2)c1C(F)(F)F [Example I-90, ethyl 3-(2-fluorophenyl)-5-(1-(3-fluorophenyl)-5-(trifluoromethyl)-1H-pyrazol-4-yl)isoxazole-4-carboxylate] | 7.00 to 8.00 | 6.00 to 7.00 | – | – | 6.00 to 7.00 | –
5 | Fc1cccc(Cl)c1-c1noc(-c2cnn(-c3cccc(Cl)c3)c2C(F)(F)F)c1-c1nnn[nH]1 [Example 3, 3-(2-chloro-6-fluorophenyl)-5-(1-(3-chlorophenyl)-5-(trifluoromethyl)-1H-pyrazol-4-yl)-4-(1H-tetrazol-5-yl)isoxazole] | – | – | 5.00 to 6.00 | 5.00 to 6.00 | – | 5.00 to 6.00
6 | NNC(=O)c1c(-c2c(F)cccc2Cl)noc1-c1cnn(-c2cccc(F)c2)c1C(F)(F)F [Example I-133, 3-(2-chloro-6-fluorophenyl)-5-(1-(3-fluorophenyl)-5-(trifluoromethyl)-1H-pyrazol-4-yl)isoxazole-4-carbohydrazide] | 5.00 to 6.00 | 5.00 to 6.00 | – | – | 5.00 to 6.00 | –
7 | CNC(=S)c1c(-c2c(F)cccc2Cl)noc1-c1cnn(-c2ccc(F)cc2)c1C(F)(F)F [Example I-76, 3-(2-chloro-6-fluorophenyl)-5-(1-(4-fluorophenyl)-5-(trifluoromethyl)-1H-pyrazol-4-yl)-N-methylisoxazole-4-carbothioamide] | 6.00 to 7.00 | 5.00 to 6.00 | – | – | 5.00 to 6.00 | –
8 | CO/C(=N\c1c(-c2c(F)cccc2Cl)noc1-c1cnn(-c2cccc(F)c2)c1C(F)(F)F)C(F)(F)F [Example I-136, (Z)-methyl N-(3-(2-chloro-6-fluorophenyl)-5-(1-(3-fluorophenyl)-5-(trifluoromethyl)-1H-pyrazol-4-yl)isoxazol-4-yl)-2,2,2-trifluoroacetimidate] | 7.00 to 8.00 | 6.00 to 7.00 | – | – | 6.00 to 7.00 | –
9 | COC(=O)c1c(-c2c(F)cccc2Cl)noc1-c1cnn(-c2cc(Cl)cc(Cl)c2)c1C(F)(F)F [Example I-68, methyl 3-(2-chloro-6-fluorophenyl)-5-(1-(3,5-dichlorophenyl)-5-(trifluoromethyl)-1H-pyrazol-4-yl)isoxazole-4-carboxylate] | 7.00 to 8.00 | 7.00 to 8.00 | – | – | 7.00 to 8.00 | –
10 | Fc1cccc(Cl)c1-c1noc(-c2cnn(-c3ccncc3)c2C(F)(F)F)c1-c1cnco1 [Example B-33, 3-(2-chloro-6-fluorophenyl)-4-(oxazol-5-yl)-5-(1-(pyridin-4-yl)-5-(trifluoromethyl)-1H-pyrazol-4-yl)isoxazole] | – | – | 6.00 to 7.00 | 5.00 to 6.00 | – | 5.00 to 6.00
11 | CCOC(=O)c1c(-c2c(F)cccc2Cl)noc1-c1cnn(-c2ccccc2N)c1C(F)(F)F [IB-98, ethyl 5-(1-(2-aminophenyl)-5-(trifluoromethyl)-1H-pyrazol-4-yl)-3-(2-chloro-6-fluorophenyl)isoxazole-4-carboxylate] | 7.00 to 8.00 | 7.00 to 8.00 | – | – | 7.00 to 8.00 | –
12 | COC(=O)c1c(-c2c(F)cccc2Cl)noc1-c1cnn(-c2ccccn2)c1C(F)(F)F [Example I-84, methyl 3-(2-chloro-6-fluorophenyl)-5-(1-(pyridin-2-yl)-5-(trifluoromethyl)-1H-pyrazol-4-yl)isoxazole-4-carboxylate] | > 8.00 | > 8.00 | – | – | > 8.00 | –
13 | Fc1cccc(Cl)c1-c1noc(-c2cnn(-c3cccc(Cl)c3)c2C(F)(F)F)c1-c1ccco1 [Example B-6, 3-(2-chloro-6-fluorophenyl)-5-(1-(3-chlorophenyl)-5-(trifluoromethyl)-1H-pyrazol-4-yl)-4-(furan-2-yl)isoxazole] | – | – | > 8.00 | > 8.00 | – | > 8.00
14 | N#Cc1c(-c2c(F)cccc2Cl)noc1-c1cnn(-c2cccc(Cl)c2)c1C(F)(F)F [Example I-49, 3-(2-chloro-6-fluorophenyl)-5-(1-(3-chlorophenyl)-5-(trifluoromethyl)-1H-pyrazol-4-yl)isoxazole-4-carbonitrile] | 6.00 to 7.00 | 6.00 to 7.00 | – | – | 6.00 to 7.00 | –
15 | COC(=O)c1c(-c2c(F)cccc2Cl)noc1-c1cnn(-c2cc(C)nc(C)n2)c1C(F)(F)F [Example I-119, methyl 3-(2-chloro-6-fluorophenyl)-5-(1-(2,6-dimethylpyrimidin-4-yl)-5-(trifluoromethyl)-1H-pyrazol-4-yl)isoxazole-4-carboxylate] | 6.00 to 7.00 | 6.00 to 7.00 | – | – | 6.00 to 7.00 | –

Now from value to molecule, other results behind:

Row | pIC50 [1, 4] | pIC50 [3, 6] | pIC50 [1, 7] | pIC50 [3, 9] | SMILES | pIC50 [2, 5] | pIC50 [2, 8]
16 | 5.00 to 6.00 | 5.00 to 6.00 | – | – | O=C(Nc1c(-c2c(F)cccc2Cl)noc1-c1cnn(-c2cccc(F)c2)c1C(F)(F)F)C(F)(F)F [IB-22, N-{3-(2-chloro-6-fluorophenyl)-5-[1-(3-fluorophenyl)-5-(trifluoromethyl)-1H-pyrazol-4-yl]-1,2-oxazol-4-yl}-2,2,2-trifluoroacetamide] | 5.00 to 6.00 | –
17 | 5.00 to 6.00 | 5.00 to 6.00 | – | – | O=C(c1c(-c2c(F)cccc2Cl)noc1-c1cnn(-c2cccnc2)c1C(F)(F)F)N1CCCO1 [IB-54, (3-(2-chloro-6-fluorophenyl)-5-(1-(pyridin-3-yl)-5-(trifluoromethyl)-1H-pyrazol-4-yl)isoxazol-4-yl)(isoxazolidin-2-yl)methanone] | 5.00 to 6.00 | –
18 | 5.00 to 6.00 | 5.00 to 6.00 | – | – | COC(=O)c1c(-c2c(F)cccc2Cl)noc1-c1cnn(-c2ccccc2Cl)c1C(F)(F)F [IB-20, methyl 3-(2-chloro-6-fluorophenyl)-5-(1-(2-chlorophenyl)-5-(trifluoromethyl)-1H-pyrazol-4-yl)isoxazole-4-carboxylate] | 5.00 to 6.00 | –
19 | 5.00 to 6.00 | 5.00 to 6.00 | – | – | O=C(c1c(-c2c(F)cccc2Cl)noc1-c1cnn(-c2ccncc2)c1C(F)(F)F)N1CCCO1 [IB-57, (3-(2-chloro-6-fluorophenyl)-5-(1-(pyridin-4-yl)-5-(trifluoromethyl)-1H-pyrazol-4-yl)isoxazol-4-yl)(isoxazolidin-2-yl)methanone] | 5.00 to 6.00 | –
20 | 7.00 to 8.00 | 7.00 to 8.00 | – | – | CCOC(=O)c1c(-c2c(F)cccc2Cl)noc1-c1cnn(-c2ccccc2[N+](=O)[O-])c1C(F)(F)F [IB-95, 3-(2-chloro-6-fluorophenyl)-5-(1-(2-nitrophenyl)-5-(trifluoromethyl)-1H-pyrazol-4-yl)isoxazole-4-carboxylate] | 6.00 to 7.00 | –
21 | 6.00 to 7.00 | 6.00 to 7.00 | – | – | CCOC(=O)c1c(-c2c(F)cccc2Cl)noc1-c1cnn(CC2CCOCC2)c1C(F)(F)F [IB-81, ethyl 3-(2-chloro-6-fluorophenyl)-5-(1-((tetrahydro-2H-pyran-4-yl)methyl)-5-(trifluoromethyl)-1H-pyrazol-4-yl)isoxazole-4-carboxylate] | 6.00 to 7.00 | –
22 | 6.00 to 7.00 | 6.00 to 7.00 | – | – | O=C(c1c(-c2c(F)cccc2Cl)noc1-c1cnn(-c2cccc(Cl)c2)c1C(F)(F)F)N1CCOCC1 [IB-35, (3-(2-chloro-6-fluorophenyl)-5-(1-(3-chlorophenyl)-5-(trifluoromethyl)-1H-pyrazol-4-yl)isoxazol-4-yl)(morpholino)methanone] | 5.00 to 6.00 | –
23 | 6.00 to 7.00 | 5.00 to 6.00 | – | – | CCOC(=O)c1c(-c2c(Cl)cncc2Cl)noc1-c1cnn(-c2cccc(Cl)c2)c1C(F)(F)F [IB-7, ethyl 5-(1-(3-chlorophenyl)-5-(trifluoromethyl)-1H-pyrazol-4-yl)-3-(3,5-dichloropyridin-4-yl)isoxazole-4-carboxylate] | 5.00 to 6.00 | –
24 | > 8.00 | > 8.00 | – | – | CCOC(=O)c1c(-c2ccccc2Cl)noc1-c1cnn(-c2cccc(Cl)c2)c1C(F)(F)F [IB-41, ethyl 3-(2-chlorophenyl)-5-(1-(3-chlorophenyl)-5-(trifluoromethyl)-1H-pyrazol-4-yl)-isoxazole-4-carboxylate] | 7.00 to 8.00 | –
25 | 5.00 to 6.00 | 6.00 to 7.00 | – | – | Fc1cccc(Cl)c1-c1noc(-c2cnn(-c3ccncc3)c2C(F)(F)F)c1Br [IB-83, 4-bromo-3-(2-chloro-6-fluorophenyl)-5-(1-(pyridin-4-yl)-5-(trifluoromethyl)-1H-pyrazol-4-yl)isoxazole] | 5.00 to 6.00 | –
